Laboratory results: patent US7501512B2, “Chemical compounds” (SmithKline Beecham Corporation, priority 2003, dated 2009)

Biological target: T1, hYAK3 (Homo sapiens, UniProt O43781)
T1 construct: made in house; host or cells: baculovirus expression system in Sf9 cells
T1 sequence (O43781 124-526): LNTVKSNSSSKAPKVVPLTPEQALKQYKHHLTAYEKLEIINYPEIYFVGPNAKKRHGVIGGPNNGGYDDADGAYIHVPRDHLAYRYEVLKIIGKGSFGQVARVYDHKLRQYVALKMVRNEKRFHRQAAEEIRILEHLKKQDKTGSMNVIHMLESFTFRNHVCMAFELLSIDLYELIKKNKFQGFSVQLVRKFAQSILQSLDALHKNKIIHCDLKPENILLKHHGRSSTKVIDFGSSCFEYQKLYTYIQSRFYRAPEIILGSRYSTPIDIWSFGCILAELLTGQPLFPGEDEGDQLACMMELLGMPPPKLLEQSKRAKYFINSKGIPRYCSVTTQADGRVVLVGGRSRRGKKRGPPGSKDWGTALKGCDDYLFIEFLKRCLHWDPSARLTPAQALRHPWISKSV
Assay: YAK3 scintillation proximity assay using Ser164 of myelin basic protein as phosphoacceptor
Type: biochemical
Details: purified GST-hYak3-His6, 0.001 mM ATP, 4 μM Ser164 peptide; read-out: pIC50 values (converted)
Method: YAK3 Scintillation Proximity Assays Using Ser164 of Myelin Basic Protein as the Phosphoacceptor
The source of Ser164 substrate peptide The biotinylated Ser164, S164A peptide (Biotinyl-LGGRDSRAGS*PMARR-OH), sequence derived from the C-terminus of bovine myelin basic protein (MBP) with Ser162 substituted as Ala162, was purchased from California Peptide Research Inc. (Napa, Calif.), and its purity was determined by HPLC. Phosphorylation occurs at position 164 (marked S* above). The calculated molecular mass of the peptide was 2166 dalton. Solid sample was dissolved at 10 mM in DMSO, aliquoted, and stored at −20° C. until use.
hYAK3: Glutathione-S-Transferase (GST)-hYak3-His6 containing amino acid residues 124-526 of human YAK3 (aa 124-526 of SEQ ID NO 2. in U.S. Pat. No. 6,323,318) was purified from baculovirus expression system in Sf9 cells using Glutathione Sepharose 4B column chromatography followed by Ni-NTA-Agarose column chromatography. Purity greater than 65% typically was achieved. Samples, in 50 mM Tris, 150 mM NaCl, 10% glycerol, 0.1% Triton, 250 mM imidazole, 10 mM β-mercapto ethanol, pH 8.0. were stored at −80° C. until use.
Kinase assay of purified hYAK3: Assays were performed in 96 well (Costar, Catalog No. 3789) or 384 well plates (Costar, Catalog No. 3705). Reaction (in 20, 25, or 40 μl volume) mix contained in final concentrations 25 mM Hepes buffer, pH 7.4; 10 mM MgCl2; 10 mM β-mercapto ethanol; 0.0025% Tween-20; 0.001 mM ATP, 0.1 μCi of [γ-^33P]ATP; purified hYAK3 (7-14 ng/assay; 4 nM final); and 4 μM Ser164 peptide. Compounds, titrated in DMSO, were evaluated at concentrations ranging from 50 μM to 0.5 nM. […] Reactions were incubated for 2 hours at room temperature and were stopped by a 75 ul addition of […] Streptavidin Scintillation Proximity beads (Amersham Pharmacia Biotech, Catalog No. RPNQ 0007) in PBS, pH 7.4, 10 mM EDTA, 0.1% Triton X-100, 1 mM ATP. Under the assay conditions defined above, the Km (apparent) for ATP was determined to be 7.2+/−2.4 μM.

SMILES | IC50 [nM]
COc1ccc2c(c1)CCn1c-2cc(Nc2c(OC)cccc2OC)nc1=O [Ia, 2-(2,6-Dimethoxy-phenylamino)-9-methoxy-6,7-dihydro-pyrimido[6,1-a]isoquinolin-4-one] | 10.2 to 100
COc1ccc2c(c1)CCn1c-2cc(Nc2ccccc2Br)nc1=O [Ie, 2-(2-Bromo-phenylamino)-9-methoxy-6,7-dihydro-pyrimido[6,1-a]isoquinolin-4-one] | 102 to 1000
COc1ccc2c(c1)CCn1c-2cc(NCCN(C)C)nc1=O [Iw, 2-(2-Dimethylamino-ethylamino)-9-methoxy-6,7-dihydro-pyrimido[6,1-a]isoquinolin-4-one] | 10.2 to 100
COc1ccc(CNc2cc3n(c(=O)n2)CCc2cc(OC)ccc2-3)cc1 [Iz, 9-Methoxy-2-(4-methoxy-benzylamino)-6,7-dihydro-pyrimido[6,1-a]isoquinolin-4-one] | 102 to 1000

Biological target: MAPKAP2 kinase (MK2) (Homo sapiens, UniProt P49137)
Sequence (P49137 whole entry, species assumed): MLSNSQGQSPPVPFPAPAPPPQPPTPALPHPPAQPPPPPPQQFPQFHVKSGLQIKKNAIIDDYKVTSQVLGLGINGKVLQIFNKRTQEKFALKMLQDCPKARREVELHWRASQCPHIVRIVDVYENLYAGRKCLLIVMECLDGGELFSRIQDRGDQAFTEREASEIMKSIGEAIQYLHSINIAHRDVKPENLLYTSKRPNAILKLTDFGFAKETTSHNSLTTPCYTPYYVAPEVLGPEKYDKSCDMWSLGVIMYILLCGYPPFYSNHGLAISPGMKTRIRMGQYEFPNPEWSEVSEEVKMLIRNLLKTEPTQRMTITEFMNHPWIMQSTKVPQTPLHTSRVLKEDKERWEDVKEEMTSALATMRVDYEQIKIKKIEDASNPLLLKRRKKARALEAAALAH
Assay: MAPKAP2 kinase (MK2) enzyme assay
Type: biochemical
Details: 1 nM recombinant MK2, 1 μM ATP, 1 μM peptide substrate; read-out: pIC50 values (converted)
Method: Compounds are tested for MAPKAP2 kinase (MK2) inhibitory activity in an assay that measures the MK2 catalyzed transfer of the γ-phosphate from ATP to serine/threonine residues of a biotinylated peptide [NH2-K(biotin)-KLNRTLSVA (SynPep Corporation, USA)]. Compounds under analysis are dissolved in DMSO to 1 mM and serially diluted 3-fold with DMSO in 96 or 384-well polypropylene or polystyrene plates for a total of 10-12 different concentrations. One uL of each concentration is transferred to the corresponding well of a 96 or 384-well, white, polystyrene assay plate. Reactions are performed in a final volume of 26 uL. An ATP solution (10 uL) is added to each well, and the reaction is initiated by the addition of a MK2/peptide mix (15 uL). The ATP solution is made in H2O and consists of 2.6 μM nonradioactive ATP (SigmaUltra) and 6.5 uCi/mL [γ-^33P]-ATP (Amersham Pharmacia Biotech). The MK2/peptide mix consists of 86.7 mM HEPES (SigmaUltra), pH 7.5, 8.67 mM MgCl2 (SigmaUltra), 0.0043% Tween 20, 1.73 mM dithiothreitol (added fresh from frozen 1M stock), 1.73 μM peptide, and 1.73 nM purified recombinant MK2. Final concentrations of the assay components are 50 mM HEPES, pH 7.5, 5 mM MgCl2, 0.0025% Tween 20, 1 mM dithiothreitol, 1 μM ATP, 2.5 μCi/mL [γ-^33P]-ATP, 1 μM peptide substrate, and 1 nM MK2. The reaction is allowed to proceed for 40 minutes and is then terminated by the addition of ‘stop solution’ (20 uL), followed by the addition of ‘bead mix’ (50 uL). […] The plates are allowed to sit for approximately 8 hours and then are quantitated using a TopCount NXF™ (Packard). Alternatively, the plates are allowed to sit for at least approximately 1 hour, centrifuged at 900 rpm for 3 minutes, and then quantitated using a TopCount NXT™ (Packard). […] Percent inhibition of MK2 activity is calculated for each compound concentration using Equation [1] […]
[formula] where Y2 is the baseline percent inhibition, Vmax is the net maximum percent inhibition (baseline subtracted), and K is the IC50. […] The results for each compound are recorded as pIC50, calculated using Equation [3]. pIC50=−log10([…]) (3)

SMILES | IC50 [nM]
COc1ccc2c(c1)CCn1c-2cc(Nc2cccc(S(N)(=O)=O)c2)nc1=O [If, 3-(9-Methoxy-4-oxo-6,7-dihydro-4H-pyrimido[6,1-a]isoquinolin-2-ylamino)-benzenesulfonamide] | 102 to 1000
COc1ccc2c(c1)CCn1c-2cc(NCCN2CCCC2)nc1=O [Iv, 9-Methoxy-2-(2-pyrrolidin-1-yl-ethylamino)-6,7-dihydro-pyrimido[6,1-a]isoquinolin-4-one] | 10 to 100
COCCN(C)c1cc2n(c(=O)n1)CCc1cc(OC)ccc1-2 [Iy, 9-Methoxy-2-[(2-methoxy-ethyl)-methyl-amino]-6,7-dihydro-pyrimido[6,1-a]isoquinolin-4-one] | 10 to 100
